These results are taken from BindingDB's records for doi:10.7270/Q2DV1H9K (University of Pittsburgh, 2008).

A value given as a limit tells only on which side of the number the result lay.

The assay deals with Cyclin-dependent kinase 7 (Homo sapiens, UniProt P50613). Description: CDK7 kinase inhibition, dose response, counter-screen for PKD inhibitor project, biochemical, 57K library addition (AID 1380). (In general: Counterscreens check selectivity or assay interference.)
Chain of Cyclin-dependent kinase 7 (P50613 whole entry): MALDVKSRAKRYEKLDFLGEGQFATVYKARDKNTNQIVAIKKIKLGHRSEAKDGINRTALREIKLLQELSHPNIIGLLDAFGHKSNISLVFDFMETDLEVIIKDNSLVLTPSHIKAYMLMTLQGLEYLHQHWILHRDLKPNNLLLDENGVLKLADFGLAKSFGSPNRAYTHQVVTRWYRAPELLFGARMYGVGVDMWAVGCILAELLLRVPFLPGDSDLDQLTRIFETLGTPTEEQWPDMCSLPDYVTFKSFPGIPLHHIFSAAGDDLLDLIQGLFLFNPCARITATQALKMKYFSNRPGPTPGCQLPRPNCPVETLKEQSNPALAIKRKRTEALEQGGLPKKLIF
As a reminder, the IC50 is the point on the concentration scale where inhibition reaches its midpoint. As for `CSc1ccccc1C(=O)NCc1ccc(F)cc1`, the half-inhibitory concentration (IC50) is over 100 µM.

The compound `O=C(CSc1ccc2nnc(-c3cccnc3)n2n1)c1ccccc1` [1-phenyl-2-[[3-(3-pyridinyl)-[1,2,4]triazolo[4,3-b]pyridazin-6-yl]thio]ethanone] yielded a concentration for half-maximal inhibition (IC50) of over 100 µM. The compound `CCOC(=O)c1sc(=NC(=O)CCS(=O)(=O)c2ccccc2)n(C)c1C` [2-[3-(benzenesulfonyl)-1-oxopropyl]imino-3,4-dimethyl-5-thiazolecarboxylic acid ethyl ester] showed an IC50 of over 100 µM. `CCCc1cc(=O)[nH]c(SCCCCN2C(=O)c3ccccc3C2=O)n1` [2-[4-[(4-oxidanylidene-6-propyl-1H-pyrimidin-2-yl)sulfanyl]butyl]isoindole-1,3-dione]: the half-inhibitory concentration (IC50) was over 100 µM.

Take `Cc1c(C#N)c(N)nc(Cl)c1C#N` [2-amino-6-chloro-4-methyl-3,5-pyridinedicarbonitrile]: the 50% inhibitory concentration (IC50) is over 100 µM. The value for `CC(N=Nc1ncc(Cl)cc1Cl)c1ccccn1` (stereo not drawn) [3,5-dichloro-N-(1-pyridin-2-ylethylideneamino)pyridin-2-amine] was over 100 µM. As to `O=C1CSCN1c1cc(Cl)ccc1Cl` [3-(2,5-dichlorophenyl)-1,3-thiazolan-4-one], the IC50 is over 100 µM.

Compound `O=C(O)c1cc(C(=O)C2CCCCC2)c[nH]1` [4-(cyclohexylcarbonyl)-1H-pyrrole-2-carboxylic acid] had an IC50 of over 100 µM.

`CC1Cc2ccccc2N1c1ncnc(N)c1[N+](=O)[O-]` (stereo not drawn) [6-(2-methyl-2,3-dihydro-1H-indol-1-yl)-5-nitro-4-pyrimidinamine] displayed a half-inhibitory concentration (IC50) of 8.22 µM. Next, `O=[N+]([O-])c1ccc(Nc2c3ccccc3nc3ccccc23)cc1` [MLS000723809]: over 100 µM; `COc1ccc(Cn2c(=O)[nH]c3cc(C(=O)NC4CCCC4)ccc3c2=O)cc1` [MLS000730065]: over 100 µM; `Cc1cc(NC(=O)CCC(=O)N(Cc2ccco2)C(C(=O)NCC2CCCO2)c2ccncc2)no1` (stereo not drawn) [N'-(furan-2-ylmethyl)-N-(5-methyl-1,2-oxazol-3-yl)-N'-[2-oxidanylidene-2-(oxolan-2-ylmethylamino)-1-pyridin-4-yl-ethyl]butanediamide]: over 100 µM. Regarding `O=C(CSc1ccncc1)Nc1ccc2ccccc2c1` [N-naphthalen-2-yl-2-pyridin-4-ylsulfanylacetamide], the half-inhibitory concentration (IC50) was over 100 µM. Next, `O=C(NNC1=Nc2cccc3cccc1c23)c1ccc(Br)cc1` [SMR000260645]: over 100 µM. The compound `O=C(Nc1ccccc1C(=O)N1CCCC1)C1COc2ccccc2O1` (stereo not drawn) [SMR000287780] came in with a half-maximal inhibitory concentration (IC50) of over 100 µM.

For `COC(=O)c1c(NC(=O)C2C3CCC(C3)C2C(=O)O)sc2c1CCCCC2` (stereo not drawn) [SMR000298221], the half-inhibitory concentration (IC50) is over 100 µM.

The compound `COc1ccc(CNC(=O)C2Cc3ccccc3CN2C(=O)c2ccco2)cc1` (stereo not drawn) [SMR000343177] returned an IC50 of over 100 µM. In turn, `Cn1cccc1C(=O)NC(=O)COC(=O)c1cc(S(=O)(=O)N2CCCCC2)ccc1Cl` [[2-[(1-methylpyrrol-2-yl)carbonylamino]-2-oxidanylidene-ethyl] 2-chloranyl-5-piperidin-1-ylsulfonyl-benzoate] gave an IC50 of over 100 µM.
